Laboratory results reported in patent US20110212053A1, “PHOSPHATIDYLINOSITOL 3 KINASE INHIBITORS” (priority 2008, published 2011).

Columns and labels:
PI3Kβ = molecular target: T1, PI3Kβ (Homo sapiens, UniProt P42338); assay: KinaseGLO luminescent PI3-kinase assay, PI3Kβ; type: biochemical
T1 construct: purchased Invitrogen or Millipore
Experimental: (§1) Compound Preparation: KinaseGLO assay: 30× stocks of inhibitors were prepared in DMSO. A 10 mM master stock was prepared and all other stocks were generated by serial dilution of this master stock in DMSO. The final concentration of DMSO in the kinase reaction was 3.3% (v/v).
(§2) PI3-Kinase Assay: The KinaseGLO® Luminescent Kinase Assay (Promega) is a luciferin-luciferase based luminescent assay that utilizes a proprietary thermostable luciferase to quantify the ATP remaining in a solution after a kinase reaction. The luminescent signal generated using KinaseGLO® directly correlates with ATP concentration, and therefore inversely correlates with kinase activity.
(§3) PI3K enzyme sample was thawed and diluted to 100 ng/μL in enzyme dilution buffer (50 mM HEPES, pH7.5, 3.0 mM MgCl2, 1.0 mM EGTA) and stored on ice. PI3Kα enzyme was diluted to a final concentration of 1 ng/μL in reaction buffer (for PI3Kα; 50 mM HEPES, pH7.5, 100 mM NaCl, 2.0 mM DTT, 3.0 mM MgCl2, 1.0 mM EGTA, 10 μM ATP) and gently mixed. 25 μL of this kinase reaction was then aliquoted into test wells in a Microfluor2 white 96-well plate (Thermo Scientific). As a preincubation step, 1 μl of 30× compound dilutions was added to the appropriate test wells to generate a ten point dose-response ranging from 0.0 μM-10 μM inhibitor. […] Luminescent signal was detected using a SpectraMax M5 (Molecular Devices). Maximal luminescence (no PI3K activity/maximal PI3K inhibition) was determined from reaction buffer plus SC-PI substrate only controls. The minimal signal (maximal PI3K activity) was determined by the 0.0 μM compound (DMSO only) control. IC50 values were calculated via non-linear regression using GraphPad Prism data analysis software.
(§4) Compounds were assayed against the Class I PI3Kα, PI3Kβ, PI3Kγ, PI3Kδ, PI3Kα(H1047R) and PI3Kα(E545K) in the KinaseGLO assay as described in Example 2, and against the Class IV PI3K mTOR in the radiometric assay. IC50 values (μM) were determined using 8-10 point half-log dose dilutions and calculated via nonlinear regression analysis using Graphpad Prism data analysis software.

PI3Kγ = molecular target: T2, PI3Kγ (Homo sapiens, UniProt P48736); assay: KinaseGLO luminescent PI3-kinase assay, PI3Kγ; type: biochemical
T2 construct: purchased Invitrogen or Millipore
T2 sequence (P48736 whole entry): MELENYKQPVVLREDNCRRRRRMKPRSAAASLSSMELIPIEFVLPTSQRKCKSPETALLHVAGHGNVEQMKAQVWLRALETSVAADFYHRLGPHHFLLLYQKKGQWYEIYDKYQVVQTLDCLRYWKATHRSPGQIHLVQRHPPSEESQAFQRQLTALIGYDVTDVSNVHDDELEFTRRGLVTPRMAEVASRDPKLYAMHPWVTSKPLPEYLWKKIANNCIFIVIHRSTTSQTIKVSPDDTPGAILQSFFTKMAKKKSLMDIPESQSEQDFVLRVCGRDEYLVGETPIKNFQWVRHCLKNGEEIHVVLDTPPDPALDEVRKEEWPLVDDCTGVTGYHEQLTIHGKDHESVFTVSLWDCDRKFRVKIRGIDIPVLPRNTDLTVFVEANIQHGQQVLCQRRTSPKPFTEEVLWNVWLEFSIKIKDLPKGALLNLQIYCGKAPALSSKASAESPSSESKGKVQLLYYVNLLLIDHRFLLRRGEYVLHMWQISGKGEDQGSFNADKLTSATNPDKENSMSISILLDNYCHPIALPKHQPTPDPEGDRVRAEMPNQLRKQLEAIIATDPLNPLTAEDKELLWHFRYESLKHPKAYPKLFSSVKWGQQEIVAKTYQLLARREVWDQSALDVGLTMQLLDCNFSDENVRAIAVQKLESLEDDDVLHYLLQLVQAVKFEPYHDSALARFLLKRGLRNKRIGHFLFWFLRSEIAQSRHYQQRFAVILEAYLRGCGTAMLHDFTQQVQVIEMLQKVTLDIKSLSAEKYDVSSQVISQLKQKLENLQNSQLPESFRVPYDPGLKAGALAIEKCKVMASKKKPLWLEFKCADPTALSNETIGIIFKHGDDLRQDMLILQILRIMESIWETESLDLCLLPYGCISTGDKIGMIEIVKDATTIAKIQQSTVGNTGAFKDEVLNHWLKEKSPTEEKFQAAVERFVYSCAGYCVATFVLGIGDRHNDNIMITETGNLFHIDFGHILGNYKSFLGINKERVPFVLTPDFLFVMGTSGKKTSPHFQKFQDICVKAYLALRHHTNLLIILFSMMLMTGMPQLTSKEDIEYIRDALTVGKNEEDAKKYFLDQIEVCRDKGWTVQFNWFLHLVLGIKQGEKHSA
Experimental: as §1, §2, §3, §4

PI3Kα = molecular target: T3, PI3Kα (Homo sapiens, UniProt P42336); assay: KinaseGLO luminescent PI3-kinase assay, PI3Kα; type: biochemical
T3 construct: purchased Invitrogen or Millipore
T3 sequence (P42336 whole entry): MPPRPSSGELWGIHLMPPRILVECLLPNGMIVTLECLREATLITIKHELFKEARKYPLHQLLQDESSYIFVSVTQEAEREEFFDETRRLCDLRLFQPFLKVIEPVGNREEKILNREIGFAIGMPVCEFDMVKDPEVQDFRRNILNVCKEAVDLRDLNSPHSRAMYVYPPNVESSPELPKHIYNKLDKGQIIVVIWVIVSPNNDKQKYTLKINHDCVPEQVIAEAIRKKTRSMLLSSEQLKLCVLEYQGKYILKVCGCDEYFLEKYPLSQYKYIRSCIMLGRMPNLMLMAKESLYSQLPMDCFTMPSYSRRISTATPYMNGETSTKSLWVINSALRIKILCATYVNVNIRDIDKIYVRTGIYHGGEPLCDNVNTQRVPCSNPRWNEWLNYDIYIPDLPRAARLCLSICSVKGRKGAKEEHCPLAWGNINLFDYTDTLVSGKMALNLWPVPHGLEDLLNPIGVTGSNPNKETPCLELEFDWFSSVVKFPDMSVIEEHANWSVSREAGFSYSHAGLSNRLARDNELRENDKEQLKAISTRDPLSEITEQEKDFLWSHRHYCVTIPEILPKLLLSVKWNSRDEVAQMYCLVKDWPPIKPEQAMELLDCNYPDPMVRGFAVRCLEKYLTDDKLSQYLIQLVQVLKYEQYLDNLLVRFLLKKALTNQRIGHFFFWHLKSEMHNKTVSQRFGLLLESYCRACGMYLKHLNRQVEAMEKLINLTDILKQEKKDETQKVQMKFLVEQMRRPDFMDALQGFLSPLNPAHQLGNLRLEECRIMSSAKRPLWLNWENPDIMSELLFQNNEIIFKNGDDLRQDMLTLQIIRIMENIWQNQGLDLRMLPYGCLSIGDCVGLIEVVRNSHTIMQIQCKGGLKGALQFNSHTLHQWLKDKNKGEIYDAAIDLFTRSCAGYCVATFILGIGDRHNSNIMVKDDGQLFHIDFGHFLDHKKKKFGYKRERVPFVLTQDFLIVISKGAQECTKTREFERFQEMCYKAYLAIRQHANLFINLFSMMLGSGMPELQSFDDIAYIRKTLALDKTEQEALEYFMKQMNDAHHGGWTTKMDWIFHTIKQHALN
T3 sequence (P27986 whole entry partner): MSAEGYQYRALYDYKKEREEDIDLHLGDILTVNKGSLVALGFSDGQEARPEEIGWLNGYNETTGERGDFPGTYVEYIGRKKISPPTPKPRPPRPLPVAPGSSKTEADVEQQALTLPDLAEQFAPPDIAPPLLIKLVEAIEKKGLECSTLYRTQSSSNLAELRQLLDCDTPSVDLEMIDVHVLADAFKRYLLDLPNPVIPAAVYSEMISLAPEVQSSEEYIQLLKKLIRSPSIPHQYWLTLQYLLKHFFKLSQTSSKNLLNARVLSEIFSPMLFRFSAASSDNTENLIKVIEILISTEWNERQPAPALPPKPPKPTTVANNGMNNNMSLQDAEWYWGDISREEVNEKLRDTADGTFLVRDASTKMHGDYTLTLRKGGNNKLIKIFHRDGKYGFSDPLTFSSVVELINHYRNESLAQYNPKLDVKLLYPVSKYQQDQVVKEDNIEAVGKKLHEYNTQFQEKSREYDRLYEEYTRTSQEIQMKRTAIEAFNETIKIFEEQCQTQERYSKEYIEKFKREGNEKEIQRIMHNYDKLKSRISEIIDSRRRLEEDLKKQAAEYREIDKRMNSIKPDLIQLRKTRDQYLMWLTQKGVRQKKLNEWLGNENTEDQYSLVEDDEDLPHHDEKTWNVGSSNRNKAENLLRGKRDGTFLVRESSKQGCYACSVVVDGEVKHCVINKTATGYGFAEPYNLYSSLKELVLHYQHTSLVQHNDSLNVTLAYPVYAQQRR
Experimental: as §1, §2
PI3K enzyme sample was thawed and diluted to 100 ng/μL in enzyme dilution buffer (50 mM HEPES, pH7.5, 3.0 mM MgCl2, 1.0 mM EGTA) and stored on ice. PI3Kα enzyme was diluted to a final concentration of 1 ng/μL in reaction buffer (for PI3Kα; 50 mM HEPES, pH7.5, 100 mM NaCl, 2.0 mM DTT, 3.0 mM MgCl2, 1.0 mM EGTA, 10 μM ATP) and gently mixed. 25 μL of this kinase reaction was then aliquoted into test wells in a Microfluor2 white 96-well plate (Thermo Scientific). As a preincubation step, 1 μl of 30× compound dilutions was added to the appropriate test wells to generate a ten point dose-response ranging from 0.0 μM-10 μM inhibitor. The enzyme-inhibitor mixture was then incubated for 30 minutes at 4° C. After this preincubation, […] (50 μM final concentration) was added to each test well to initiate the kinase reaction. Reactions were incubated at room temperature for 2 hours with moderate shaking. The KinaseGLO® luminescent reagent (Promega) was prepared according to the manufacturer's instructions. Both the KinaseGLO® buffer and substrate were allowed to thaw and equilibrate at room temperature for two hours prior to mixing and use. The PI3-kinase reaction was terminated by the addition of 30 μL of reconstituted KinaseGLO® reagent to each reaction well and then incubated in the dark for 10 minutes at room temperature. Luminescent signal was detected using a SpectraMax M5 (Molecular Devices). Maximal luminescence (no PI3K activity/maximal PI3K inhibition) was determined from reaction buffer plus SC-PI substrate only controls. The minimal signal (maximal PI3K activity) was determined by the 0.0 μM compound (DMSO only) control. IC50 values were calculated via non-linear regression using GraphPad Prism data analysis software.
as §4

[1] = tested on: p-AKT(S473) in U-87 MG cells; assay: In-cell western blot (cytoblot) of AKT phosphorylation, U-87 MG; type: cell-based; conditions: Homo sapiens, read-out: IC50 against the p-AKT(S473) phosphorylation site
Experimental: Compound Preparation: Cell-based assays: 1000× stocks of inhibitors were prepared in DMSO. A 10 mM master stock was prepared and all other stocks were generated by serial dilution of the master stock in DMSO. The final concentration of DMSO in cell-based assays was 0.1% (v/v).
In-cell western blot (cytoblot) mechanistic assay; Measurement of AKT phosphorylation: The in-cell western blot assay is a quantitative 96-well immunocytochemistry assay using fixed cells. Phosphorylated AKT is detected and quantified via either enhanced chemiluminescence (ECL) or near infra-red (LI-COR) methods. Log-phase cells (10,000 A549, RKO or 30,000 U-87 MG) were plated in collagen coated, 96 well plates (Nunc) in 200 μL of growth medium (10% FBS/DMEM) and allowed to attach overnight at 37° C. in 5% CO2 incubator. Black 96 well plates were used for ECL assays. White, clear bottomed 96 well plates were used for LI-COR assays. The following day the growth medium was removed. For experiments using U-87 MG cells and RKO cells, the growth medium was replaced with 200 μL of fresh growth medium containing inhibitors dissolved in DMSO. PI3K inhibitors were dosed using half-log dilutions to generate an eight-point dose-response curve from 0.0 μM-10 μM for EC50 determinations, and the final concentration of DMSO in the test wells was 0.1% (v/v). The inhibitor treated cells were then incubated for 1 hour at 37° C. […]
After the inhibitor incubation phase (with or without IGF-1 stimulation), the medium was aspirated, the cells washed once with Tris-Buffered Saline (TBS) and then fixed in the wells by addition of 200 μL of cold 3.7% (v/v) formaldehyde diluted in TBS to test wells and incubated for 15 minutes at 4° C. […] The wells were then was washed four times with ice-cold TBS-T. Phospho-AKT luminescent signal was detected after a 1 minute incubation of test wells with 100 μL of ECL reagent using a SpectraMax M5 luminometer. (ii) Near-infrared fluorescence detection (LI-COR): After removal of the methanol, wells were blocked with 200 μL of LI-COR blocking buffer for 1 hour at room temperature. […]

T1 sequence (P42338 whole entry): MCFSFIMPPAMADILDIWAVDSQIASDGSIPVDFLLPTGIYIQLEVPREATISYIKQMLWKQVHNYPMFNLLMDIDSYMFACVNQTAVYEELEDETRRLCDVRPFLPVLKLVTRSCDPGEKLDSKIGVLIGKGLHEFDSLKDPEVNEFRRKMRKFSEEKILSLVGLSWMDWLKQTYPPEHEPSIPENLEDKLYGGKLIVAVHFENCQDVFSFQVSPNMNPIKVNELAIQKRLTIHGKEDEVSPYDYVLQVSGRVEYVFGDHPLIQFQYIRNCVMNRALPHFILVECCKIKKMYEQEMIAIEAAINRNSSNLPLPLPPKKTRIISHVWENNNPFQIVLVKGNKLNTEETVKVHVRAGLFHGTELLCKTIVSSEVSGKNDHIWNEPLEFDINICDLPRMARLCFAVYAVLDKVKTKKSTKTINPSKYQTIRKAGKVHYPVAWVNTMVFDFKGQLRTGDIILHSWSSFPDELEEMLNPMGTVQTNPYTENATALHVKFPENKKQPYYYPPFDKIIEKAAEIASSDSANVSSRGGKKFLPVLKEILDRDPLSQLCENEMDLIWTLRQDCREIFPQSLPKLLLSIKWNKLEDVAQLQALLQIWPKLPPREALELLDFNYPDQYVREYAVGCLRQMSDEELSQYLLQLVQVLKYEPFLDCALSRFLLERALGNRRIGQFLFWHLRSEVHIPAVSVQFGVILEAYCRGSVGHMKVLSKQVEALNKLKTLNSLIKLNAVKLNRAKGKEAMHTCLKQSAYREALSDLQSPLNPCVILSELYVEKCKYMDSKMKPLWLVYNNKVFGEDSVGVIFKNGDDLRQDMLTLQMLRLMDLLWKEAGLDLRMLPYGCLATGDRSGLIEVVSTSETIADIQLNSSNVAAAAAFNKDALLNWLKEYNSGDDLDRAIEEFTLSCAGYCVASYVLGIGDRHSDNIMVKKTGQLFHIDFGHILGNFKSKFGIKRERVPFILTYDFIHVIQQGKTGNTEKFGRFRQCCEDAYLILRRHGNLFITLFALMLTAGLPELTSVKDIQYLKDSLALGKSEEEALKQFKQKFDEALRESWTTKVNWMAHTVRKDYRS
T1 sequence (P27986 whole entry partner): as the sequence (P27986 whole entry partner) above

IC50 (PI3Kβ)	IC50 (PI3Kγ)	IC50 (PI3Kα)	IC50 [1]	SMILES
> 50 nM	10 to 25 nM	< 10 nM	81 nM	CC(C)(C#N)c1ccc(-c2n[nH]c3cnc4ccc(-c5ccc6ncccc6c5)cc4c23)cc1 [Compound 1110, 2-methyl-2-(4-(8-(quinolin-6-yl)-3H-pyrazolo[3,4-c]quinolin-1-yl)phenyl)propanenitrile]
> 50 nM	10 to 25 nM	> 20 nM	88 nM	CC(C)(C#N)c1ccc(-c2n[nH]c3cnc4ccc(-c5cnc6ccccc6c5)cc4c23)cc1 [Compound 1078, 2-methyl-2-(4-(8-(quinolin-3-yl)-3H-pyrazolo[3,4-c]quinolin-1-yl)phenyl)propanenitrile]
35 to 50 nM	10 to 25 nM	< 10 nM	54 nM	CC(C)(C#N)c1ccc(-c2n[nH]c3cnc4ccc(-c5cccnc5)cc4c23)cc1 [Compound 1107, 2-methyl-2-(4-(8-(pyridin-3-yl)-3H-pyrazolo[3,4-c]quinolin-1-yl)phenyl)propanenitrile]
